According to patent publication US11498923B2 (Merck Sharp & Dohme Corp., priority 2017, dated 2022):

The molecules below were run against T1, human A2a receptor (Homo sapiens, UniProt P29274) (assay: A2a receptor competition binding assay (Scintillation Proximity)). Conditions: membranes from HEK293 cells expressing human A2a receptor; 0.5 nM tritiated ligand; Cheng-Prusoff; read-out: A2a Ki.
T1 construct: purchased Perkin-Elmer RBHA2AM400UA; host or cells: HEK293 cells, used as a membrane preparation
T1 sequence (P29274 whole entry): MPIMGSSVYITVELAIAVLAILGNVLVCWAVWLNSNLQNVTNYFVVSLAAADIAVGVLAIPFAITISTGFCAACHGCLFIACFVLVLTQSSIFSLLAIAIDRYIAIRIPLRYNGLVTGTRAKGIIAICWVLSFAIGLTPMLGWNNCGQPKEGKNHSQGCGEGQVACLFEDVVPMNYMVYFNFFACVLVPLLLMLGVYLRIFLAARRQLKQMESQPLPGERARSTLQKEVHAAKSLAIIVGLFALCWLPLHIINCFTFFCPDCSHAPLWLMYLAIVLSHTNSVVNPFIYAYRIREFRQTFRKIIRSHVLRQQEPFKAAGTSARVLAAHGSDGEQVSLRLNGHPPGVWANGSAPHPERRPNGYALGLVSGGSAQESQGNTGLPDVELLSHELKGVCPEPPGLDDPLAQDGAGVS
In short: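 Ki values were obtained with the Cheng-Prusoff equation from competition curves against 0.5 nM tritiated antagonist, scintillation proximity counting after 1 h room-temperature incubation. Receptor came from HEK293 membranes pretreated with adenosine deaminase; compound final range 3000–0.15 nM, buffer Ca/Mg-free PBS with 10 mM MgCl2.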

Compound	Ki
COc1cccc2c1nc(N)n1cc(CN3CCc4cccnc4C3)nc21 [Ex-120, 2-((5,8-dihydro-1,7-naphthyridin-7(6H)-yl)methyl)-7-methoxyimidazo[1,2-c]quinazolin-5-amine]	4.2 nM
COc1cccc2c1nc(N)n1cc(C(=O)c3ccccc3)nc21 [Ex-103, (5-amino-7-methoxyimidazo[1,2-c]quinazolin-2-yl)(phenyl)methanone]	26.4 nM
Nc1nc2ccccc2c2nc(CN3CCN(c4ccc(F)cc4F)CC3)cn12 [Ex-116, 2-((4-(2,4-difluorophenyl)piperazin-1-yl)methyl) imidazo[1,2-c] quinazolin-5-amine]	1000 nM
Nc1nc2c(F)cccc2c2nc(CN3CCN(CCc4ccccc4)CC3)cn12 [Ex-113, 7-fluoro-2-((4-phenethylpiperazin-1-yl)methyl)imidazo-[1,2-c]quinazolin-5-amine]	76 nM
COc1cccc2c1nc(N)n1cc(CN3CC(c4cccc(Cl)c4)C3)nc21 [Ex-144, 2-((3-(3-chlorophenyl)azetidin-1-yl)methyl)-7-methoxyimidazo[1,2-c]quinazolin-5-amine]	13 nM
Nc1nc2c(F)cccc2c2nc(Cn3cc(-c4cccnc4)nn3)cn12 [Ex-96, 7-fluoro-2-((4-(pyridin-3-yl)-1H-1,2,3-triazol-1-yl)methyl)imidazo[1,2-c]quinazolin-5-amine]	36 nM
Nc1nc2cc(N3CCOCC3)c(F)cc2c2nc(Cc3ccccc3)cn12 [Ex-13, 2-benzyl-9-fluoro-8-morpholinoimidazo[1,2-c]quinazolin-5-amine]	920 nM
Nc1nc2c(F)cccc2c2nc(CN3CCCN(c4ccccn4)CC3)cn12 [Ex-119, 7-fluoro-2-((4-(pyridin-2-yl)-1,4-diazepan-1-yl)methyl)imidazo[1,2-c]quinazolin-5-amine]	210 nM
Nc1nc2ccccc2c2nc(C(=O)NCc3cccc4cccnc34)cn12 [Ex-161, 5-amino-N-(quinolin-8-ylmethyl)-imidazo-[1,2-c]-quinazoline-2-carboxamide]	39.4 nM
N#Cc1ccc(N2CCc3c(Cc4cn5c(N)nc6c(F)cccc6c5n4)cccc3C2)nc1 [Ex-54, 6-(5-((5-amino-7-fluoroimidazo[1,2-c]quinazolin-2-yl)methyl)-3,4-dihydroisoquinolin-2(1H)-yl)nicotinonitrile]	3.8 nM
COc1cccc2c1nc(N)n1cc(Cc3cccc4c3CCN(C(=O)Cc3ccc(F)c(F)c3)C4)nc21 [Ex-59, 1-(5-((5-amino-7-methoxyimidazo[1,2-c]quinazolin-2-yl)methyl)-3,4-dihydroisoquinolin-2(1H)-yl)-2-(3,4-difluorophenyl)ethan-1-one]	2.9 nM
Nc1nc2c(F)cccc2c2nc(Cc3ccccc3CN3CCN(c4ncccn4)CC3)cn12 [Ex-71, 7-fluoro-2-(2-((4-(pyrimidin-2-yl)piperazin-l-yl)methyl)benzyl) imidazo[1,2-c]quinazolin-5-amine]	5.3 nM
COc1cccc2c1nc(N)n1cc(Cc3cccc4c3CCN(C(=O)CCC(F)(F)F)C4)nc21 [Ex-60, 1-(5-((5-amino-7-methoxyimidazo[1,2-c]quinazolin-2-yl)methyl)-3,4-dihydroisoquinolin-2(1H)-yl)-4,4,4-trifluorobutan-1-one]	2 nM
Nc1nc2c(F)cccc2c2nc(Cn3cc(-c4cc(C(F)(F)F)cc(C(F)(F)F)c4)nn3)cn12 [Ex-94, 2-((4-(3,5-bis(trifluoromethyl)phenyl)-1H-1,2,3-triazol-1-yl)methyl)-7-fluoroimidazo[1,2-c]quinazolin-5-amine]	150 nM
COCCOc1ccc(N2CCN(Cc3ccccc3Cc3cn4c(N)nc5c(OC)cccc5c4n3)CC2)cc1 [Ex-66, 7-methoxy-2-(2-((4-(4-(2-methoxyethoxy)phenyl)piperazin-1-yl)methyl)benzyl)imidazo[1,2-c]quinazolin-5-amine]	11.5 nM
Nc1nc2c(F)cccc2c2nc(Cc3ccc(C(=O)NCC(c4cccnc4)N4CCOCC4)cc3)cn12 (stereo not drawn) [Ex-88, 4-((5-amino-7-fluoroimidazo[1,2-c]quinazolin-2-yl)methyl)-N-(2-morpholino-2-(pyridin-3-yl)ethyl)benzamide]	84 nM
COc1cccc2c1nc(N)n1cc(C(=O)NCc3cccc4cccnc34)nc21 [Ex-157, 5-amino-7-methoxy-N-(quinolin-8-ylmethyl)imidazo[1,2-c]quinazoline-2-carboxamide]	1.5 nM

Next, values leading:

Ki	Compound
300 nM	Nc1nc2c(F)cccc2c2nc(CC3CCN(CCc4ccccc4)CC3)cn12 [Ex-308, 7-fluoro-2-((1-phen-ethylpiperidin-4-yl)-methyl)imidazo[1,2-c]quinazolin-5-amine]
53.8 nM	COc1cccc2c1nc(N)n1cc(C(=O)N3CCOCC3CC(C)C)nc21 (stereo not drawn) [Ex-186, (5-amino-7-methoxyimidazo[1,2-c]quinazolin-2-yl)(3-isobutylmorpholino) methanone]
30 nM	Nc1nc2c(F)cccc2c2nc(CC3CCN(C(=O)OCc4ccccc4)CC3)cn12 [Ex-316, benzyl 4-((5-amino-7-fluoroimidazo[1,2-c]quinazolin-2-yl)-methyl)piperidine-1-carboxylate]
12.8 nM	Nc1nc2c(F)cccc2c2nc(C(=O)NCc3cccc4cccnc34)cn12 [Ex-163, 5-amino-7-fluoro-N-(quinolin-8-ylmethyl)imidazo[1,2-c]quinazoline-2-carboxamide]
40 nM	Nc1nc2c(F)cccc2c2nc(C(=O)N3CCN4CCCC[C@H]4C3)cn12 [Ex-285, (S)-(5-amino-7-fluoroimidazo[1,2-c]quinazolin-2-yl)(octahydro-2H-pyrido[1,2-a]pyrazin-2-yl)methanone]
9 nM	Nc1nc2c(F)cccc2c2nc(C(=O)NC3CCNc4ccccc43)cn12 (stereo not drawn) [Ex-248, 5-amino-7-fluoro-N-(1,2,3,4-tetrahydroquinolin-4-yl)imidazo[1,2-c]quinazoline-2-carboxamide]
11 nM	COc1cccc2c1nc(N)n1cc(C(=O)N3CC[C@@H](CF)C3)nc21 [Ex-214, (R)-(5-amino-7-methoxyimidazo[1,2-c]quinazolin-2-yl)(3-(fluoromethyl)pyrrolidin-1-yl)methanone]
14 nM	Nc1nc2c(F)cccc2c2nc(C(=O)NCc3ccccn3)cn12 [Ex-298, 5-amino-7-fluoro-N-(pyridin-2-ylmethyl)imidazo[1,2-c]quinazoline-2-carboxamide]
11 nM	COc1cccc2c1nc(N)n1cc(C(=O)N3CCC4CCCCC4C3)nc21 (stereo not drawn) [Ex-192, (5-amino-7-methoxyimidazo[1,2-c]quinazolin-2-yl)(octahydroisoquinolin-2(1H)-yl)methanone]
130 nM	CCCN1CCC2(CCCN(C(=O)c3cn4c(N)nc5c(F)cccc5c4n3)C2)C1 (stereo not drawn) [Ex-276, (5-amino-7-fluoroimidazo[1,2-c]quinazolin-2-yl)(2-propyl-2,7-diazaspiro[4.5]decan-7-yl)methanone]
28 nM	C[C@H](NC(=O)c1cn2c(N)nc3c(F)cccc3c2n1)c1ccccc1 [Ex-296, (S)-5-amino-7-fluoro-N-(1-phenylethyl)imidazo[1,2-c]quinazoline-2-carboxamide]
5.6 nM	COc1cccc2c1nc(N)n1cc(C(=O)N3CCCCC34CC4)nc21 [Ex-198, (5-amino-7-methoxyimidazo[1,2-c]quinazolin-2-yl)(4-azaspiro[2.5]octan-4-yl)methanone]
18 nM	Nc1nc2c(F)cccc2c2nc(C(=O)NCc3ccccc3CN3CCN(c4ccc(F)cc4F)CC3)cn12 [Ex-249, 5-amino-N-(2-((4-(2,4-difluorophenyl)piperazin-1-yl)methyl)benzyl)-7-fluoroimidazo[1,2-c]quinazoline-2-carboxamide]
32 nM	Nc1nc2c(F)cccc2c2nc(C(=O)N3CCC4(CCN(C(=O)Cc5ccc(F)c(F)c5)C4)C3)cn12 (stereo not drawn) [Ex-282, 1-(7-(5-amino-7-fluoroimidazo[1,2-c]quinazoline-2-carbonyl)-2,7-diazaspiro[4.4]nonan-2-yl)-2-(3,4-difluorophenyl)ethan-1-one]
2 nM	Nc1nc2c(F)cccc2c2nc(C(=O)NCc3ccccc3N3CCOCC3)cn12 [Ex-250, 5-amino-7-fluoro-N-(2-morpholinobenzyl)imidazo [1,2-c]quinazoline-2-carboxamide]
12 nM	Nc1nc2c(F)cccc2c2nc(CC3CCN(c4ncc(F)cn4)CC3)cn12 [Ex-300, 7-fluoro-2-((1-(5-fluoropyrimidin-2-yl)piperidin-4-yl)methyl)imidazo[1,2-c]quinazolin-5-amine]
14 nM	COc1cccc2c1nc(N)n1cc(C(=O)N3CCC[C@H]3C(F)(F)F)nc21 [Ex-211, (S)-(5-amino-7-methoxyimidazo[1,2-c]quinazolin-2-yl)(2-(trifluoromethyl)pyrrolidin-1-yl)methanone]
49 nM	COc1cccc2c1nc(N)n1cc(C(=O)N3CCCOCC3)nc21 [Ex-177, (5-amino-7-methoxyimidazo[1,2-c]quinazolin-2-yl)(1,4-oxazepan-4-yl)methanone]
10 nM	COc1cccc2c1nc(N)n1cc(C(=O)N3CC[C@@H](OC)C3)nc21 [Ex-213, (R)-(5-amino-7-methoxyimidazo[1,2-c]quinazolin-2-yl)(3-methoxypyrrolidin-1-yl)methanone]
180 nM	COc1cccc2c1nc(N)n1cc(C(=O)N3CCC4(CCOC4=O)CC3)nc21 [Ex-228, 8-(5-amino-7-methoxyimidazo[1,2-c]quinazoline-2-carbonyl)-2-oxa-8-azaspiro[4.5]decan-1-one]
21 nM	COc1cccc2c1nc(N)n1cc(C(=O)N3CCCCC3)nc21 [Ex-190, (5-amino-7-methoxyimidazo[1,2-c]quinazolin-2-yl)(piperidin-1-yl)methanone]
240 nM	COc1cccc2c1nc(N)n1cc(C(=O)N3CCC4(CCC(=O)O4)CC3)nc21 [Ex-227, 8-(5-amino-7-methoxyimidazo[1,2-c]quinazoline-2-carbonyl)-1-oxa-8-azaspiro[4.5]decan-2-one]
